Experimental data: US8673368B2, “Cannabinoid-containing plant extracts as neuroprotective agents” (GW Pharma Limited, priority 2006, dated 2014)

Columns and labels:
NMDA receptor = settings: cited from earlier work
hippocampal neurones [1] = assay: Effect of five-minute application of 1 μM test article on intracellular calcium levels (calcium imaging, Fura-2-AM); assay type: cell-based, Lister-Hooded rat; settings: for Concentration of intracellular Ca2+ Post-treatment: after five-minute application of 1 μM test article; for Fura-2 350/380 nm ratio, pre-treatment: baseline before five-minute application of 1 μM test article; for %ΔF/F / Concentration of intracellular Ca2+ Response (Post-Pre): five-minute application of 1 μM test article
Experimental: (§1) Standard primary hippocampal cultures were prepared from Lister-Hooded rat pups (1-3 days old), euthanised by cervical dislocation, in accordance with Home Office and institute regulations. The brain was quickly removed, hippocampi dissected out and placed in ice-cold filtered HEPES buffered solution (HBS, composition in mM: NaCl 130; KCl 5.4; CaCl2 1.8; MgCl2 1.0; HEPES 10; glucose 25). Micro-dissection was performed to remove blood vessels and excess, non-hippocampal, tissue.
(§2) The hippocampal tissue was thinly chopped and placed in 1 mg/ml type X and XIV protease solution (40 minutes). The tissue was then washed in HBS and triturated several times using graded fire-polished glass Pasteur pipettes. Following centrifugation, the supernatant was removed and the remaining tissue pellet re-suspended in tissue culture medium (90% Minimum Essential Medium with 10% foetal bovine serum and 2 mM L-glutamine). The tissue was stored at standard conditions: in a humidified incubator at 37° C. and in 5% CO2, and re-centrifuged.
(§3) Excess medium was removed and the tissue pellet re-suspended in culture medium for plating. A drop of cell suspension was placed on the centre of a 35 mm culture dish, coated with poly-L-lysine and incubated at 37° C. for 1 hour. Following this, a further 2 ml of tissue culture medium was gently added to each dish and the culture kept in a humidified incubator (37° C.; 5% CO2).
(§4) Cultures were allowed to mature for 2 days before replacement of MEM with Neurobasal Medium, supplemented with 2% B27, 2 mM L-glutamine, and 25 μM L-glutamate. Culture dishes were used for imaging at 5-10 days in vitro.
(§5) For calcium imaging experiments, hippocampal cultures were washed with HBS at room temperature and loaded with the cell-permeable fluorescent calcium indicator Fura-2-AM (10 μM) for 1 hour in the dark.
(§6) The sodium channel blocker tetrodotoxin (TTX) was added to all perfusion media, to avoid spontaneous cell firing and transmitter release, ensuring only post-synaptic effects were visualised.
(§7) Cultures were perfused with HBS or low Mg^2+HEPES buffered solution for experiments involving NMDA (composition in mM: NaCl 130; KCl 5.4; CaCl2 1.8; MgCl2 0.1; HEPES 10; glucose 25), at a rate of 1-2 ml/min, using a gravity perfusion system.
(§8) A suitable field of cells was identified under the microscope and a greyscale transmission image visualised and captured using Oracal software. A Xenon lamp, which gave a single wavelength of light, was used to expose the cells to 350 nm and 380 nm, specified by the monochromator.
(§9) The ratio of these wavelengths, which is directly proportional to intracellular calcium levels in the cells, was plotted after background fluorescence subtraction.
(§10) The data that were produced were pooled and means for each experiment determined.
In order to test the regulation of calcium homeostasis in the presence of the test article, the effects were measured in response to a five-minute application of 1 μM sample.
(§11) Fluorescent units were converted into %ΔF/F. F is defined as an average of five baseline values before drug application. The value for %ΔF/F is therefore the percentage change in the […] by the average baseline value before drug application.
All experiments were performed a minimum of three times, each on neurones from a different culture. Only changes in fluorescence >0.1 ratio units were considered as a response. Data were exported to Excel and statistical analysis performed using Prism. Normality tests confirmed absence of normal distribution of data. Therefore, a Mann Whitney U test was utilised for paired comparisons and for multiple group comparisons a Kruskal-Wallis test with either a Dunn's or Mann Whitney post-test used.
The effects of the essentially pure cannabinoids, the cannabinoid-containing plant extracts and the cannabinoid-ratioed comparators were assessed to investigate the responses of the neurones to these different forms of cannabinoid.

hippocampal neurones [2] = assay: Acute modulation of NMDA (10 μM) calcium response by five-minute application of 1 μM test article; assay type: cell-based, Lister-Hooded rat; settings: for Pre-treatment %ΔF/F / Pre-treatment [Ca2+]: initial two-minute NMDA (10 μM) application, before test article; for Response (% change): reduction of NMDA (10 μM) calcium response by 1 μM test article, positive = reduction; for Post-treatment %ΔF/F / Post-treatment [Ca2+]: second two-minute NMDA (10 μM) application after five minutes of 1 μM test article
Experimental: as §1, §2, §3, §4, §5, §6, §7, §8, §9, §10
(§12) A stock of NMDA (10 mM) was made up in double-distilled water and the necessary concentrations made up in HBS. NMDA (with 100 μM glycine) was applied in every experiment to categorically distinguish between neuronal and glial cells in the image obtained.
The acute modulatory effect of calcium homeostasis was assessed by comparing an initial two-minute application of NMDA (10 μM) with a subsequent two-minute application of NMDA (10 μM). The subsequent application of the NMDA followed a five minute application of 1 μM sample.
as §11
(§13) All experiments were performed a minimum of three times, each on neurones from a different culture. Only changes in fluorescence >0.1 ratio units were considered as a response. Data were exported to Excel and statistical analysis performed using Prism. Normality tests confirmed absence of normal distribution of data. […]

hippocampal neurones [3] = assay: Intracellular calcium ion concentration after overnight incubation with 1 μM test article; assay type: cell-based, Lister-Hooded rat; settings: for Concentration of intracellular Ca2+ Response (Post-Pre): overnight incubation with 1 μM test article at 37° C., 5% CO2; for Change from control (%): overnight incubation with 1 μM test article, control = naïve culture dishes, minus = reduction
Experimental: as §1, §2, §3, §4, §5, §6, §7, §8, §9, §10
(§14) To assess the effects of the test articles under more realistic chronic treatment regimes, cells were incubated overnight with 1 μM sample and responses to increasing doses of NMDA assessed (1, 10 & 100 μM).
as §11
All experiments were performed a minimum of three times, each on neurones from a different culture. Only changes in fluorescence >0.1 ratio units were considered as a response. […]

hippocampal neurones [4] = assay: Response to increasing doses of NMDA after overnight incubation with 1 μM test article; assay type: cell-based, Lister-Hooded rat
Experimental: as §1, §2, §3, §4, §5, §6, §7, §8, §9, §10, §12, §14, §11, §13

hippocampal neurones [5] = assay: Acute effect on NMDA calcium ion response following overnight incubation with test article; assay type: cell-based, Lister-Hooded rat; settings: for Response (% change): overnight incubation plus acute 1 μM test article, NMDA 10 μM, positive = reduction, minus = increase; for Post-treatment %ΔF/F / Post-treatment [Ca2+] / Pre-treatment %ΔF/F / Pre-treatment [Ca2+]: overnight incubation with 1 μM test article; for Post-treatment %ΔF/F / Post-treatment [Ca2+]: NMDA 10 μM after 5 minute application of 1 μM same test article; for Pre-treatment %ΔF/F / Pre-treatment [Ca2+]: NMDA 10 μM for 2 minutes, before acute application
Experimental: as §1, §2, §3, §4, §5, §6, §7, §8, §9, §10, §12
In order to assess whether the acute modulatory effects are altered by overnight incubation, the cells were incubated overnight with the 1 μM sample and assessed by comparing an initial two-minute application of NMDA (10 μM) with a subsequent two-minute application of NMDA (10 μM). The subsequent application of the NMDA followed a five minute application of 1 μM test article.
as §11
All experiments were performed a minimum of three times, each on neurones from a different culture. Only changes in fluorescence >0.1 ratio units were considered as a response. Data were exported to Excel and statistical analysis performed using Prism. […]

[6] = tested on: neuronal cultures exposed to glutamate; settings: in vitro, isolated or synthetic cannabinoid; cited from earlier work
[7] = isolated or synthetic CBD; cited from earlier work

Compound | Concentration of intracellular Ca2+ Post-treatment (hippocampal neurones [1]) | Fura-2 350/380 nm ratio, pre-treatment (hippocampal neurones [1]) | %ΔF/F (hippocampal neurones [1]) [%] | Concentration of intracellular Ca2+ Response (Post-Pre) (hippocampal neurones [1]) | Pre-treatment %ΔF/F (hippocampal neurones [2]) [%] | Pre-treatment [Ca2+] (hippocampal neurones [2]) | Response (% change) (hippocampal neurones [2]) [%] | Post-treatment %ΔF/F (hippocampal neurones [2]) [%] | Post-treatment [Ca2+] (hippocampal neurones [2]) | Concentration of intracellular Ca2+ Response (Post-Pre) (hippocampal neurones [3]) | Change from control (%) (hippocampal neurones [3]) | %ΔF/F (hippocampal neurones [4]; 1 μM NMDA) [%] | Concentration of intracellular Ca2+ Post-treatment (hippocampal neurones [4]; 1 μM NMDA) | Concentration of intracellular Ca2+ Pre-treatment (hippocampal neurones [4]; 1 μM NMDA) | Concentration of intracellular Ca2+ Response (Post-Pre) (hippocampal neurones [4]; 1 μM NMDA) | %ΔF/F (hippocampal neurones [4]; 10 μM NMDA) [%] | Concentration of intracellular Ca2+ Post-treatment (hippocampal neurones [4]; 10 μM NMDA) | Concentration of intracellular Ca2+ Pre-treatment (hippocampal neurones [4]; 10 μM NMDA) | Concentration of intracellular Ca2+ Response (Post-Pre) (hippocampal neurones [4]; 10 μM NMDA) | %ΔF/F (hippocampal neurones [4]; 100 μM NMDA) [%] | also measured
O=C(O)[C@@H]1C[C@H](CP(=O)(O)O)CCN1 (racemic) [Selfotel] |  |  |  |  |  |  |  |  |  |  |  |  |  |  |  |  |  |  |  |  | Mortality rate versus placebo (NMDA receptor; stroke patients): trends towards a higher mortality rate
CN1CC[C@@]23CCCC[C@@H]2[C@@H]1Cc1ccc(O)cc13 [Dextrorphan] |  |  |  |  |  |  |  |  |  |  |  |  |  |  |  |  |  |  |  |  | Side effects (NMDA receptor; human subjects): hallucinations, agitation and hypotension
C=C(C)[C@@H]1CCC(C)=C[C@H]1c1c(O)cc(CCCCC)cc1O [P-CBD, cannabidiol] | 1.172 | 0.805 | 45.45 | 0.367 | 91.70 | 0.722 | 58.2 | 32.91 | 0.302 | 0.893 | 13.2 | 43.80 | 0.410 | 0.933 | −0.523 | 53.54 | 0.489 | 0.913 | −0.424 | 141.57 | Response (% change) (hippocampal neurones [2]; listed as essentially pure CBD): far greater reduction; Concentration of intracellular Ca2+ Post-treatment (hippocampal neurones [4]; 100 μM NMDA): 1.289; Concentration of intracellular Ca2+ Pre-treatment (hippocampal neurones [4]; 100 μM NMDA): 0.910; Concentration of intracellular Ca2+ Response (Post-Pre) (hippocampal neurones [4]; 100 μM NMDA): 0.379; Response (% change) (hippocampal neurones [5]): −68.6%; Response (% change) (hippocampal neurones [5]; listed as essentially pure CBD): increased the concentration to a large extent; Post-treatment %ΔF/F (hippocampal neurones [5]): 71.97%; Post-treatment [Ca2+] (hippocampal neurones [5]): 0.715; Pre-treatment %ΔF/F (hippocampal neurones [5]): 52.42%; Pre-treatment [Ca2+] (hippocampal neurones [5]): 0.424; Prevention of glutamate toxicity [6]: prevented to some extent; Difference between treated and placebo treated animals [7]: failed to find a difference
CCCCCc1cc(O)c2c(c1)OC(C)(C)[C@@H]1CCC(C)=C[C@@H]21 [P-THC, tetrahydrocannabinol] | 0.588 | 0.363 | 56.38 | 0.225 | 93.69 | 0.741 | 19.6 | 63.81 | 0.596 | 0.826 | 6.2 | 62.24 | 0.522 | 0.839 | −0.317 | 57.50 | 0.498 | 0.866 | −0.368 | 200.35 | Response (% change) (hippocampal neurones [2]; listed as essentially pure THC): lowest amount of reduction; Change from control (%) (hippocampal neurones [3]; listed as essentially pure THC): increase; Concentration of intracellular Ca2+ Response (Post-Pre) (hippocampal neurones [4]; 1 μM NMDA, listed as essentially pure THC): did not reduce the concentration of calcium ions as much as the others; Concentration of intracellular Ca2+ Post-treatment (hippocampal neurones [4]; 100 μM NMDA): 1.897; Concentration of intracellular Ca2+ Pre-treatment (hippocampal neurones [4]; 100 μM NMDA): 0.947; Concentration of intracellular Ca2+ Response (Post-Pre) (hippocampal neurones [4]; 100 μM NMDA): 0.950; Response (% change) (hippocampal neurones [5]): −28.5%; Post-treatment %ΔF/F (hippocampal neurones [5]): 38.93%; Post-treatment [Ca2+] (hippocampal neurones [5]): 0.487; Pre-treatment %ΔF/F (hippocampal neurones [5]): 46.53%; Pre-treatment [Ca2+] (hippocampal neurones [5]): 0.379; Prevention of glutamate toxicity [6]: prevented to some extent
